Tests used:
Assay in all cases: relative viability (nuclei count vs DMSO), 5 days (fraction); higher = more cells survive
BEN = test system: BEN
Procedure, shortened: (§1)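 Values are medians from duplicate plates. Each reflects relative viability, defined as the nuclei count of treated wells over that of vehicle wells. Lung cancer cell lines in 1536-well plates were pin-tool dosed one day after seeding with one drug alone or with a fixed anchor-drug dose plus five library-drug doses (not always all listed) in √10 steps, then fixed, stained and imaged at 4× after 5 days.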

CAL-12T = test system: CAL-12T
Procedure, shortened: as §1

COR-L23 = test system: COR-L23
Procedure, shortened: as §1

HCC-366 = test system: HCC-366
Procedure, shortened: as §1

LOU-NH91 = test system: LOU-NH91
Procedure, shortened: as §1

LU99A = test system: LU99A
Procedure, shortened: as §1

NCI-H1355 = test system: NCI-H1355
Procedure, shortened: as §1

NCI-H1437 = test system: NCI-H1437
Procedure, shortened: as §1

NCI-H1563 = test system: NCI-H1563
Procedure, shortened: as §1

NCI-H1650 = test system: NCI-H1650
Procedure, shortened: as §1

NCI-H1651 = test system: NCI-H1651
Procedure, shortened: as §1

NCI-H1734 = test system: NCI-H1734
Procedure, shortened: as §1

NCI-H1793 = test system: NCI-H1793
Procedure, shortened: as §1

NCI-H1975 = test system: NCI-H1975
Procedure, shortened: as §1

NCI-H2023 = test system: NCI-H2023
Procedure, shortened: as §1

NCI-H2085 = test system: NCI-H2085
Procedure, shortened: as §1

NCI-H2342 = test system: NCI-H2342
Procedure, shortened: as §1

NCI-H358 = test system: NCI-H358
Procedure, shortened: as §1

NCI-H441 = test system: NCI-H441
Procedure, shortened: as §1

NCI-H460 = test system: NCI-H460
Procedure, shortened: as §1

NCI-H838 = test system: NCI-H838
Procedure, shortened: as §1

SK-LU-1 = test system: SK-LU-1
Procedure, shortened: as §1

SMILES: CC(=O)O[C@@]12CO[C@@H]1C[C@H](O)[C@@]1(C)C(=O)[C@H](O)C3=C(C)[C@@H](OC(=O)[C@H](O)[C@@H](NC(=O)OC(C)(C)C)c4ccccc4)C[C@@](O)([C@@H](OC(=O)c4ccccc4)[C@H]21)C3(C)C [Docetaxel] + Nc1nc2[nH]cc(CCc3ccc(C(=O)N[C@@H](CCC(=O)O)C(=O)O)cc3)c2c(=O)[nH]1 [Pemetrexed] (partner 0.2 µM)
- relative viability (BEN; first compound 0.0002 µM): 0.68
- relative viability (BEN; first compound 0.000632 µM): 0.795
- relative viability (BEN; first compound 0.002 µM): 0.442
- relative viability (BEN; first compound 0.006325 µM): 0.449
- relative viability (BEN; first compound 0.02 µM): 0.325
- relative viability (CAL-12T; first compound 0.0002 µM): 1.08
- relative viability (CAL-12T; first compound 0.000632 µM): 0.83
- relative viability (CAL-12T; first compound 0.002 µM): 0.241
- relative viability (CAL-12T; first compound 0.006325 µM): 0.272
- relative viability (CAL-12T; first compound 0.02 µM): 0.19
- relative viability (COR-L23; first compound 0.0002 µM): 0.189
- relative viability (COR-L23; first compound 0.000632 µM): 0.184
- relative viability (COR-L23; first compound 0.002 µM): 0.186
- relative viability (COR-L23; first compound 0.006325 µM): 0.167
- relative viability (HCC-366; first compound 0.0002 µM): 0.162
- relative viability (HCC-366; first compound 0.000632 µM): 0.16
- relative viability (HCC-366; first compound 0.002 µM): 0.0677
- relative viability (HCC-366; first compound 0.006325 µM): 0.0361
- relative viability (HCC-366; first compound 0.02 µM): 0.0202
- relative viability (LOU-NH91; first compound 0.0002 µM): 0.373
- relative viability (LOU-NH91; first compound 0.000632 µM): 0.367
- relative viability (LOU-NH91; first compound 0.002 µM): 0.311
- relative viability (LOU-NH91; first compound 0.006325 µM): 0.338
- relative viability (LOU-NH91; first compound 0.02 µM): 0.312
- relative viability (LU99A; first compound 0.0002 µM): 0.208
- relative viability (LU99A; first compound 0.000632 µM): 0.201
- relative viability (LU99A; first compound 0.002 µM): 0.217
- relative viability (LU99A; first compound 0.006325 µM): 0.207
- relative viability (LU99A; first compound 0.02 µM): 0.19
- relative viability (NCI-H1355; first compound 0.0002 µM): 1.09
- relative viability (NCI-H1355; first compound 0.000632 µM): 0.958
- relative viability (NCI-H1355; first compound 0.002 µM): 0.789
- relative viability (NCI-H1355; first compound 0.006325 µM): 0.309
- relative viability (NCI-H1355; first compound 0.02 µM): 0.198
- relative viability (NCI-H1437; first compound 0.0002 µM): 0.3
- relative viability (NCI-H1437; first compound 0.000632 µM): 0.361
- relative viability (NCI-H1437; first compound 0.002 µM): 0.32
- relative viability (NCI-H1437; first compound 0.006325 µM): 0.288
- relative viability (NCI-H1437; first compound 0.02 µM): 0.213
- relative viability (NCI-H1563; first compound 0.0002 µM): 0.701
- relative viability (NCI-H1563; first compound 0.000632 µM): 0.843
- relative viability (NCI-H1563; first compound 0.002 µM): 0.69
- relative viability (NCI-H1563; first compound 0.006325 µM): 0.608
- relative viability (NCI-H1563; first compound 0.02 µM): 0.374
- relative viability (NCI-H1650; first compound 0.0002 µM): 0.387
- relative viability (NCI-H1650; first compound 0.000632 µM): 0.412
- relative viability (NCI-H1650; first compound 0.002 µM): 0.28
- relative viability (NCI-H1650; first compound 0.006325 µM): 0.263
- relative viability (NCI-H1650; first compound 0.02 µM): 0.158
- relative viability (NCI-H1651; first compound 0.0002 µM): 0.443
- relative viability (NCI-H1651; first compound 0.000632 µM): 0.593
- relative viability (NCI-H1651; first compound 0.002 µM): 0.447
- relative viability (NCI-H1651; first compound 0.006325 µM): 0.175
- relative viability (NCI-H1734; first compound 0.0002 µM): 0.425
- relative viability (NCI-H1734; first compound 0.000632 µM): 0.521
- relative viability (NCI-H1734; first compound 0.002 µM): 0.405
- relative viability (NCI-H1734; first compound 0.006325 µM): 0.303
- relative viability (NCI-H1734; first compound 0.02 µM): 0.239
- relative viability (NCI-H1793; first compound 0.0002 µM): 0.842
- relative viability (NCI-H1793; first compound 0.000632 µM): 0.603
- relative viability (NCI-H1793; first compound 0.002 µM): 0.251
- relative viability (NCI-H1793; first compound 0.006325 µM): 0.271
- relative viability (NCI-H1793; first compound 0.02 µM): 0.188
- relative viability (NCI-H1975; first compound 0.0002 µM): 0.286
- relative viability (NCI-H1975; first compound 0.000632 µM): 0.277
- relative viability (NCI-H1975; first compound 0.002 µM): 0.232
- relative viability (NCI-H1975; first compound 0.006325 µM): 0.18
- relative viability (NCI-H1975; first compound 0.02 µM): 0.137
- relative viability (NCI-H2023; first compound 0.0002 µM): 0.208
- relative viability (NCI-H2023; first compound 0.000632 µM): 0.197
- relative viability (NCI-H2023; first compound 0.002 µM): 0.144
- relative viability (NCI-H2023; first compound 0.006325 µM): 0.124
- relative viability (NCI-H2023; first compound 0.02 µM): 0.0817
- relative viability (NCI-H2085; first compound 0.0002 µM): 0.84
- relative viability (NCI-H2085; first compound 0.000632 µM): 0.902
- relative viability (NCI-H2085; first compound 0.002 µM): 0.552
- relative viability (NCI-H2085; first compound 0.006325 µM): 0.545
- relative viability (NCI-H2085; first compound 0.02 µM): 0.301
- relative viability (NCI-H2342; first compound 0.0002 µM): 0.731
- relative viability (NCI-H2342; first compound 0.000632 µM): 0.745
- relative viability (NCI-H2342; first compound 0.002 µM): 0.584
- relative viability (NCI-H2342; first compound 0.006325 µM): 0.495
- relative viability (NCI-H2342; first compound 0.02 µM): 0.493
- relative viability (NCI-H358; first compound 0.0002 µM): 0.16
- relative viability (NCI-H358; first compound 0.000632 µM): 0.172
- relative viability (NCI-H358; first compound 0.002 µM): 0.164
- relative viability (NCI-H358; first compound 0.006325 µM): 0.155
- relative viability (NCI-H358; first compound 0.02 µM): 0.117
- relative viability (NCI-H441; first compound 0.000632 µM): 0.253
- relative viability (NCI-H441; first compound 0.002 µM): 0.206
- relative viability (NCI-H441; first compound 0.006325 µM): 0.198
- relative viability (NCI-H460; first compound 0.0002 µM): 0.0551
- relative viability (NCI-H460; first compound 0.000632 µM): 0.0652
- relative viability (NCI-H460; first compound 0.002 µM): 0.0375
- relative viability (NCI-H460; first compound 0.006325 µM): 0.0299
- relative viability (NCI-H460; first compound 0.02 µM): 0.021
- relative viability (NCI-H838; first compound 0.0002 µM): 0.247
- relative viability (NCI-H838; first compound 0.000632 µM): 0.27
- relative viability (NCI-H838; first compound 0.002 µM): 0.22
- relative viability (NCI-H838; first compound 0.006325 µM): 0.157
- relative viability (NCI-H838; first compound 0.02 µM): 0.134
- relative viability (SK-LU-1; first compound 0.0002 µM): 0.947
- relative viability (SK-LU-1; first compound 0.000632 µM): 0.725
- relative viability (SK-LU-1; first compound 0.002 µM): 0.535
- relative viability (SK-LU-1; first compound 0.006325 µM): 0.337
- relative viability (SK-LU-1; first compound 0.02 µM): 0.258

From the supplement of paper PMC10307832
